Test results taken from patent US20050197371A1, “Urea derivatives as PDGFR modulators” (Ambit Biosciences Corporation, priority 2003, published 2005).
pKd: −log10 of the molar value.

Target: T1, PDGFRB(DKIN) (PDGFR-β) (Homo sapiens, UniProt P09619)
T1 construct: PDGFRB(DKIN)
Assay: Phage-display competitive binding assay, PDGFRB(DKIN)
Details: T7 phage displaying human PDGFR-β, DKIN construct; read-out: Binding Assay: PDGFRB(DKIN)
Procedure: The term “ND” represents non-determined values.
Briefly, T7 phage displaying human PDGFR-β were incubated with an affinity matrix coated with known PDGFR-β inhibitor in the presence of various concentrations of the soluble competitor molecules.

| pKd | Structure (SMILES) |
| --- | --- |
| 6.00 to 7.00 | COC(=O)c1ccc(C(=O)Nc2ccc(NC(=O)Nc3cc(C(C)(C)C)on3)cc2)nc1 [Compound N12] |
| > 7.00 | CC(C)(C)c1cc(NC(=O)Nc2ccc(NC(=O)C3=NCC=N3)cc2)no1 [Compound N13] |
| 6.00 to 7.00 | CC(C)(C)c1cc(NC(=O)Nc2ccc(NC(=O)c3csnn3)cc2)no1 [Compound N14] |
| 6.00 to 7.00 | Cc1nc(C(=O)Nc2ccc(NC(=O)Nc3cc(C(C)(C)C)on3)cc2)nn1-c1cc(Cl)cc(Cl)c1 [Compound N15] |
| > 7.00 | CC(C)(C)c1cc(NC(=O)Nc2ccc(NC(=O)c3csc(-c4ccncc4)n3)cc2)no1 [Compound N16] |
| > 7.00 | CC(C)(C)c1cc(NC(=O)Nc2ccc(NC(=O)c3cc4cc(Br)ccc4s3)cc2)no1 [Compound N17] |
| 6.00 to 7.00 | Cc1nnsc1C(=O)Nc1ccc(NC(=O)Nc2cc(C(C)(C)C)on2)cc1 [Compound N18] |
| 5.00 to 6.00 | CC(C)(C)c1cc(NC(=O)Nc2ccc(NC(=O)c3c[nH]c(=O)nc3-c3ccncc3)cc2)no1 [Compound N19] |
| 6.00 to 7.00 | Cn1cc(C(=O)Nc2ccc(NC(=O)Nc3cc(C(C)(C)C)on3)cc2)c(C(F)(F)F)n1 [Compound N20] |
| 6.00 to 7.00 | COc1nc(C)cc(C)c1C(=O)Nc1ccc(NC(=O)Nc2cc(C(C)(C)C)on2)cc1 [Compound N22] |
| > 7.00 | CC(C)(C)c1cc(NC(=O)Nc2ccc(NC(=O)c3ccccc3Cl)cc2)no1 [Compound N23] |
| 5.00 to 6.00 | CC(C)(C)c1cc(NC(=O)Nc2ccc(NC(=O)c3cccc(Br)c3)cc2)no1 [Compound N24] |
| 6.00 to 7.00 | CC(C)(C)c1cc(NC(=O)Nc2ccc(NC(=O)c3cccc(OC(F)F)c3)cc2)no1 [Compound N25] |
| > 7.00 | CC(C)(C)c1cc(NC(=O)Nc2ccc(NC(=O)c3ccc4ccccc4c3)cc2)no1 [Compound N28] |
| 6.00 to 7.00 | CC(C)(C)c1cc(NC(=O)Nc2ccc(NC(=O)c3cc(Cl)cc(Cl)c3)cc2)no1 [Compound N29] |
| > 7.00 | CCc1ccc(C(=O)Nc2ccc(NC(=O)Nc3cc(C(C)(C)C)on3)cc2)cc1 [Compound N32] |
| > 7.00 | CC(C)(C)c1cc(NC(=O)Nc2ccc(NC(=O)c3ccccc3)cc2)no1 [Compound N34] |
| 6.00 to 7.00 | CC(C)(C)c1cc(NC(=O)Nc2ccc(NC(=O)Cc3ccccc3)cc2)no1 [Compound N35] |
| 5.00 to 6.00 | CC(C)(C)c1cc(NC(=O)Nc2ccc(NC(=O)c3c(F)cccc3F)cc2)no1 [Compound N37] |
| 6.00 to 7.00 | CC(C)(C)c1cc(NC(=O)Nc2ccc(NC(=O)Cc3ccc(-c4ccccc4)cc3)cc2)no1 [Compound N38] |
| > 7.00 | Cc1[nH]c(C(=O)Nc2ccc(NC(=O)Nc3cc(C(C)(C)C)on3)cc2)c(C)c1CCC(=O)O [Compound N39] |
| 6.00 to 7.00 | CC(C)(C)c1cc(NC(=O)Nc2ccc(NC(=O)/C=C/c3ccccc3Cl)cc2)no1 [Compound N40] |
| > 7.00 | Cc1cccnc1C(=O)Nc1ccc(NC(=O)Nc2cc(C(C)(C)C)on2)cc1 [Compound N41] |
| 6.00 to 7.00 | CC(C)(C)c1cc(NC(=O)Nc2ccc(NC(=O)C(N)Cc3ccccc3F)cc2)no1 (stereo not drawn) [Compound N42] |
| > 7.00 | CC(=O)c1c[nH]c(C(=O)Nc2ccc(NC(=O)Nc3cc(C(C)(C)C)on3)cc2)c1 [Compound N43] |

| pKd | Structure (SMILES) |
| --- | --- |
| 5.00 to 6.00 | CC(C)(C)c1cc(NC(=O)Nc2ccc(NC(=O)CC(N)c3ccccc3Cl)cc2)no1 (stereo not drawn) [Compound N44] |
| 6.00 to 7.00 | CC(C)(C)c1cc(NC(=O)Nc2ccc(NC(=O)c3cnn(-c4cccc(Cl)c4)c3Br)cc2)no1 [Compound N45] |
| 6.00 to 7.00 | COc1cc(OC)nc(Oc2ccccc2C(=O)Nc2ccc(NC(=O)Nc3cc(C(C)(C)C)on3)cc2)n1 [Compound N47] |
| 6.00 to 7.00 | COc1cc(OC)nc(Nc2cccc(C(=O)Nc3ccc(NC(=O)Nc4cc(C(C)(C)C)on4)cc3)c2)n1 [Compound N49] |
| > 7.00 | COc1ccnc(Nc2ccc(C(=O)Nc3ccc(NC(=O)Nc4cc(C(C)(C)C)on4)cc3)cc2)n1 [Compound N51] |
| 6.00 to 7.00 | COc1cc(OC)nc(N(C)c2cccc(C(=O)Nc3ccc(NC(=O)Nc4ccon4)cc3)c2)n1 [Compound N53] |
| > 7.00 | CC(C)(C)c1cc(NC(=O)Nc2ccc(NC(=O)c3cc(N4CCOCC4)nc(N4CCOCC4)n3)cc2)no1 [Compound N54] |
| 6.00 to 7.00 | Cc1nc(C(=O)Nc2ccc(NC(=O)Nc3cc(C(C)(C)C)on3)cc2)c(C(F)(F)F)o1 [Compound N55] |
| 5.00 to 6.00 | COc1cc(OC)nc(Oc2cccnc2C(=O)Nc2ccc(NC(=O)Nc3cc(C(C)(C)C)on3)cc2)n1 [Compound N56] |
| 6.00 to 7.00 | CC(C)c1cc(NC(=O)Nc2ccc(NC(=O)C3CCN(c4ncc(C(F)(F)F)cc4Cl)CC3)cc2)no1 [Compound N59] |
| > 7.00 | CC(C)(C)c1cc(NC(=O)Nc2ccc(NC(=O)c3cc4cccc5c4n(c3=O)CC5)cc2)no1 [Compound N60] |
| 5.00 to 6.00 | CC(C)(C)c1cc(NC(=O)Nc2ccc(NC(=O)c3cc4cccnc4nc3C(F)(F)F)cc2)no1 [Compound N61] |
| 5.00 to 6.00 | CC(C)(C)c1cc(NC(=O)Nc2ccc(NC(=O)C3=Cc4cc(F)cc(S(C)(=O)=O)c4C3)cc2)no1 [Compound N62] |
| < 5.00 | Cn1nc(C(F)(F)F)c2cc(C(=O)Nc3ccc(NC(=O)Nc4cc(C(C)(C)C)on4)cc3)sc21 [Compound N64] |
| 6.00 to 7.00 | CC(=O)c1ccc(N2CCC(C(=O)Nc3ccc(NC(=O)Nc4cc(C(C)(C)C)on4)cc3)CC2)cc1 [Compound N65] |
| 6.00 to 7.00 | CC(C)(C)c1cc(NC(=O)Nc2ccc(NC(=O)Cc3oc(-c4ccc(Cl)cc4)nc3-c3ccccc3)cc2)no1 [Compound N66] |
| 6.00 to 7.00 | Cn1nc(C(F)(F)F)c(C(=O)Nc2ccc(NC(=O)Nc3cc(C(C)(C)C)on3)cc2)c1Cl [Compound N68] |
| 5.00 to 6.00 | CC(C)(C)c1cc(NC(=O)Nc2ccc(NC(=O)c3ccccc3O)cc2)no1 [Compound N69] |
| 5.00 to 6.00 | COc1cc(OC)nc(Oc2ccccc2C(=O)Nc2ccc(NC(=O)Nc3cc(C(C)(C)C)on3)cc2)n1 [Compound N70] |
| 5.00 to 6.00 | CC(C)(C)c1cc(NC(=O)Nc2ccc(NC(=O)c3nnsc3Oc3ccc(Cl)cc3)cc2)no1 [Compound N71] |
| 6.00 to 7.00 | CC(C)(C)c1cc(NC(=O)Nc2ccc(NC(=O)CSCC(=O)Nc3ccccc3)cc2)no1 [Compound N72] |
| > 7.00 | C=N/C(=N\C)Oc1cccc(C(=O)Nc2ccc(NC(=O)Nc3cc(C(C)(C)C)on3)cc2)c1 [Compound N74] |
| > 7.00 | CC(C)c1oc(Cl)nc1C(=O)Nc1ccc(NC(=O)Nc2cc(C(C)(C)C)on2)cc1 [Compound N75] |
| 6.00 to 7.00 | CC(C)(C)c1cc(NC(=O)Nc2ccc(NC(=O)c3ccc(-n4cc(-c5ccncn5)cn4)cc3)cc2)no1 [Compound N76] |
| 5.00 to 6.00 | CC(C)(C)c1cc(C(=O)Nc2ccc(NC(=O)Nc3cc(C(C)(C)C)on3)cc2)n(-c2ccccc2)n1 [Compound N78] |

| pKd | Structure (SMILES) |
| --- | --- |
| > 7.00 | CC(=O)Oc1cccnc1C(=O)Nc1ccc(NC(=O)Nc2cc(C(C)(C)C)on2)cc1 [Compound N79] |
| > 7.00 | CC(C)(C)c1cc(NC(=O)Nc2ccc(NC(=O)Cc3noc4ccccc34)cc2)no1 [Compound N80] |
| > 7.00 | CC(C)(C)c1cc(NC(=O)Nc2ccc(NC(=O)c3cccc[n+]3[O-])cc2)no1 [Compound N81] |
| 6.00 to 7.00 | CC(C)(C)c1cc(NC(=O)Nc2ccc(NC(=O)c3nocc3C(C)(C)C)cc2)no1 [Compound N82] |
| > 7.00 | CCOC(=O)CCc1c(C)[nH]c(C(=O)Nc2ccc(NC(=O)Nc3cc(C(C)(C)C)on3)cc2)c1C [Compound N83] |
| > 7.00 | Cc1ccc(NC(=O)c2ccc(NC(=O)Nc3cc(C(C)(C)C)on3)cc2)cc1 [Compound N84] |
| 6.00 to 7.00 | CNC(=O)c1ccc(NC(=O)Nc2cc(C(C)(C)C)on2)cc1 [Compound N85] |
| 6.00 to 7.00 | CC(C)(C)c1cc(NC(=O)Nc2ccc(C(N)=O)cc2)no1 [Compound N86] |
| 6.00 to 7.00 | CC(C)(C)c1cc(NC(=O)Nc2ccc(C(=O)NCCO)cc2)no1 [Compound N87] |
| 6.00 to 7.00 | C[C@H](NC(=O)c1ccc(NC(=O)Nc2cc(C(C)(C)C)on2)cc1)c1ccccc1 [Compound N88] |
| 6.00 to 7.00 | CC(C)(C)c1cc(NC(=O)Nc2ccc(C(=O)NCc3ccccc3)cc2)no1 [Compound N89] |
| 6.00 to 7.00 | CC(C)(C)c1cc(NC(=O)Nc2ccc(C(=O)Nc3ccccc3)cc2)no1 [Compound N90] |
| 6.00 to 7.00 | CC(C)(C)c1cc(NC(=O)Nc2ccc(NC(=O)C3CCCCC3)cc2)no1 [Compound N91] |
| > 7.00 | Cc1ccc(C(=O)Nc2ccc(NC(=O)Nc3cc(C(C)(C)C)on3)cc2)cc1 [Compound N92] |
| 5.00 to 6.00 | C/C=C/C(=O)Nc1ccc(NC(=O)Nc2cc(C(C)(C)C)on2)cc1 [Compound N93] |
| 6.00 to 7.00 | CC(C)(C)c1cc(NC(=O)Nc2ccc(NC(=O)c3c(Cl)cccc3Cl)cc2)no1 [Compound N94] |
| 5.00 to 6.00 | CC(C)(C)c1cc(NC(=O)Nc2ccc(NC(=O)c3c(F)cccc3C(F)(F)F)cc2)no1 [Compound N95] |
| 6.00 to 7.00 | CC(C)(C)c1cc(NC(=O)Nc2ccc(NC(=O)CCc3ccccc3)cc2)no1 [Compound N96] |
| 5.00 to 6.00 | CC(C)(C)c1cc(NC(=O)Nc2ccc(C(=O)NCc3ccc4c(c3)OCO4)cc2)no1 [Compound N97] |
| < 5.00 | CC(C)(C)c1cc(NC(=O)Nc2ccc(NC(=O)Cc3ccc(OCc4ccccc4)cc3)cc2)no1 [Compound N98] |
| 6.00 to 7.00 | CC(C)(C)c1cc(NC(=O)Nc2ccc(C(=O)Nc3ccc(OCC4CCC4)cc3)cc2)no1 [Compound N100] |
| 6.00 to 7.00 | CC(C)(C)OC(=O)Nc1ccc(NC(=O)Nc2cc(C(C)(C)C)on2)cc1 [Compound N101] |
| < 5.00 | CCN(CC)CCNC(=O)c1ccc(NC(=O)Nc2cc(C(C)(C)C)on2)cc1 [Compound N102] |
| 6.00 to 7.00 | Cc1ccncc1C(=O)Nc1ccc(NC(=O)Nc2cc(C(C)(C)C)on2)cc1 [Compound N104] |

Same assay, conditions: read-out: Binding Assay: PDGFRB(DKIN); T7 phage displaying human PDGFR-β, DKIN construct

| pKd | Structure (SMILES) |
| --- | --- |
| > 7.00 | CC(C)(C)c1cc(NC(=O)Nc2ccc(NC(=O)c3cn4c(n3)sc3ccccc34)cc2)no1 [Compound N73] |
